Results: patent US8883964B2, “Compositions comprising modified collagen and uses therefor” (The Johns Hopkins University, priority 2004, dated 2014)

Assays:
[1] = tested on: breast epithelial cells (MCF-7); test: Cell adhesion study on treated collagen film, breast epithelial cells; type: cell-based, human; settings: for invasion of treated films by fibroblasts or epithelial cells: summary statement
Procedure: (§1) The melting temperature of 5 was determined to be 29° C. which is 7° C. lower than the melting temperature of (ProHypGly)7 (SEQ ID NO: 40) (Table 1).^27 Here, the hydrophilic and bulky PEG group seems to destabilize the triple helix in water. A solution containing 5 at 45° C. was added to the collagen coated culture plate (prepared as above) and human fibroblasts or breast epithelial cells were seeded and incubated for three days at 37° C. […] In contrast, areas of collagen films treated with 5 are almost devoid of fibroblasts (FIG. 7B) and epithelial cells (FIG. 7C).
For applications where it is desirable to repel cell growth for prolonged periods (e.g., weeks or months), it is desirable to employ CMPs of increased length. In films that were treated with mPEG2000-Gly3-(Pro-Hyp-Gly)7 (SEQ ID NO: 6), cell growth extending into the treated area was observed after 3 days in culture (FIGS. 9A, 9B, and 9C). This might be due to the release of mPEG2000-Gly3-(Pro-Hyp-Gly)7 (SEQ ID NO: 6) from the PEG-CMP modified collagen film during incubation at 37° C.
(Pro-Hyp-Gly)8-Gly3-PEG5000-OH (SEQ ID NO: 26) with lengthened CMP and PEG, was designed to prolong the anti-adhesive property of pegylated CMP modified collagen to cells. Its melting temperature is 38° C. in PBS solution. A delay in invasive cell growth was observed on areas of the collagen film treated with (Pro-Hyp-Gly)8-Gly3-PEG5000-OH (SEQ ID NO: 26) (FIGS. 10A and FIG. 10B). […] It can also be seen from the images that cells outside the treated area grow vertically before invading the treated area.
(§2) To the collagen film (prepared as above) was added 10 μl of peptide 5 solution (2 mM in pH 7.4 potassium phosphate buffer). The film was allowed to dry and excess materials were removed by washing with potassium phosphate buffer (pH 7.4, 50 mM) and culture medium (DMEM or IMDM). Cells were added to the culture well and incubated at room temperature for 30 minutes. Human fibroblasts (CRL-1502) were seeded at 4.5×10^5 cell/ml cell density in DMEM and breast epithelial cells (MCF-7) at 5.6×10^5 cells/ml density in cell culture media (IMDM). The nonattached cells were removed by rinsing the well three times with growth medium and PBS buffer. The remaining cells were incubated at 37° C. (5% CO2) for three days. The growth medium was exchanged after 48 hours.

[2] = Circular dichroism thermal melting (triple helix transition temperature); type: physicochemical; settings: for Tm (transition temperature determined by circular dichroism spectroscopy): measured in 57.5 μM acetic acid solution
Procedure: Circular dichroism (CD) spectra were recorded on JASCO 710 spectrometer equipped with JASCO PTC-348 WI temperature controller and Hellma cell (400 μL, 0.1 mm pathlength). The thermal melting curves were obtained by measuring the molar ellipticity at 225 nm with 1° C./min heating rate. All samples (57 μM in 50 mM acetic acid) were stored at 4° C. for 24 hours before the CD measurement.
The thermal melting curves were obtained by measuring the ellipticity of peptide in deionized (DI) water (0.5˜2 mM) at 225 nm with 0.1° C./min heating rate. All samples were stored at 4° C. for 24 hours before the measurement. (FIG. 15)
Triple-helical conformation of the CMP was confirmed by circular dichroism (CD) spectroscopy. Peptide samples (250 or 500 μM) were prepared in distilled water and incubated at 4° C. overnight before the CD measurement. CD was recorded between 180 and 280 nm on a JASCO'710 CD spectrometer at various temperatures under a nitrogen flow. Each measurement had static equilibrium time of 30 minutes.

[3] = tested on: Human fibroblasts (CRL-1502); test: Cell adhesion study on treated collagen film, human fibroblasts; type: cell-based; settings: three days at 37° C.
Procedure: as §1, §2

[4] = target: T1, collagen films (type I, bovine) (Bos taurus, UniProt P02453+P02465); test: CMP-collagen film affinity study (fluorescence intensity of treated films); type: binding; settings: for affinity toward collagen film (fluorescence intensity): solution pre-equilibrated at 25° C. or 80° C., both conditions, 3 h at room temperature
T1 construct: natural collagen (acid soluble, bovine type I); purchased Sigma
Procedure: The transition melting temperature of collagen film as determined by circular dichroism spectroscopy is shown at FIG. 4. To the collagen-coated cell culture wells (at room temperature) was added a solution of 2 which was pre-equilibrated at either 25° C. or 80° C. After three hours of incubation at room temperature, the collagen films were washed with buffer solution and observed by fluorescence microscope. As control samples, 5CF, fluorescein isothiocyanate-dextran (FITC-Dextran), and peptide 3 were used to treat collagen films under identical experimental conditions. […] Similar results were obtained when gelatin films were used as a substrate (FIG. 5A: Group c). In addition, the helical content of CMP treated collagen film was 3.5 times higher than that of the film treated with a blank solution (see support information).
In order to understand the effect of collagen film denaturation in the CMP binding process, a shorter CMP derivative was synthesized, peptide 4, with a melting temperature (25° C.) well below that of the collagen film. […] In addition, the modified collagen fiber retained its native banding texture when investigated by transmission electron microscopy (FIG. 6). Hotter solutions (60° C. and 80° C.) which denature the collagen film during the treatment produced collagen films with slightly higher CMP content (approximately 20% increase from that of the […] solution).
To each well of a 96-well culture plate was added 200 μl of saturated collagen (acid soluble, type I bovine) solution in 0.5 M acetic acid. The culture plate was air-dried to form transparent collagen films. The films were neutralized with 0.01 M potassium phosphate buffer (pH 7.4), and washed with distilled water. To the collagen-coated wells were added 40 μl of 0.01 M potassium phosphate solutions (pH 7.4) containing 50 μM of either CF (5-carboxyfluorescein), FITC-Dextran, and peptides 2, 3, or 4, which were pre-equilibrated at 25° C. or 80° C. After 3 hours of incubation at room temperature, the wells were washed with 0.01 M potassium phosphate buffer solution (pH 7.4) and observed by fluorescence microscope (Eclips ME 600, Nikon Corp). The total fluorescence intensity was acquired from the fluorescence micrographs using Meta Imaging Series V4.5, (Universal Imaging Corporation, Dowingtown Pa.). Average values of four independent experiments are reported.

[5] = target: T2, Collagen (type I, bovine) film (Bos taurus, UniProt P02453+P02465); test: Helical content estimation of the modified collagen films by CD
T2 construct: natural collagen (acid soluble, bovine type I); purchased Sigma
Procedure: Collagen (type I, bovine) film was treated with either peptide 2 solution or blank buffer solution as described before. After 3 hr of incubation at room temperature, the wells were washed with 0.01 M potassium phosphate buffer solution (pH 7.4) and deionized water. All samples were dissolved in 50 mM acetic acid to a concentration of 1.80 μM or 3.60 μM and stored at 4° C. for 24 hours before the CD measurement. Average values of four independent experiments are reported (FIG. 4).

[6] = target: T3, collagen fibers (type I) (Bos taurus, UniProt P02453+P02465); test: TEM analysis of the modified collagen fibers; set-up: species or system bovine; settings: treatment at 30° C.
T3 construct: natural collagen (acid soluble, bovine type I); purchased Sigma
Procedure: Collagen fibers were prepared by dialysis of collagen in 0.01M acetic acid solution against dilute NaCl solution. Peptide 4 in potassium phosphate buffer (400 μl, 500 μM, pH 7.4) was added to the collagen fibers in the PBS buffer (1 ml, 1 mg/ml, pH 7.4). The mixture was incubated for 3 hours and excess peptide 4 was removed by repeated centrifugation. The collagen fibers were resuspended in deionized water and transferred to a TEM grid. Uranyl acetate was used to stain the collagen fiber. (FIG. 6)

[7] = Circular dichroism thermal melting (triple helix transition temperature); type: physicochemical; settings: in PBS solution
[8] = target: T4, collagen film (Bos taurus, UniProt P02453+P02465); test: Release of fluorescence-labeled CMP derivatives from collagen films; settings: 37° C., PBS solution pH 7.4
T4 construct: natural collagen (acid soluble, bovine type I); purchased Sigma
Description: The release of fluorescence-labeled PEG-CMPs derivatives from collagen films is shown in (FIG. 11).

[9] = comparison value; cited from earlier work
[10] = solution pre-equilibrated at 80° C.

T1 sequence (P02453 162-1217 limits assumed): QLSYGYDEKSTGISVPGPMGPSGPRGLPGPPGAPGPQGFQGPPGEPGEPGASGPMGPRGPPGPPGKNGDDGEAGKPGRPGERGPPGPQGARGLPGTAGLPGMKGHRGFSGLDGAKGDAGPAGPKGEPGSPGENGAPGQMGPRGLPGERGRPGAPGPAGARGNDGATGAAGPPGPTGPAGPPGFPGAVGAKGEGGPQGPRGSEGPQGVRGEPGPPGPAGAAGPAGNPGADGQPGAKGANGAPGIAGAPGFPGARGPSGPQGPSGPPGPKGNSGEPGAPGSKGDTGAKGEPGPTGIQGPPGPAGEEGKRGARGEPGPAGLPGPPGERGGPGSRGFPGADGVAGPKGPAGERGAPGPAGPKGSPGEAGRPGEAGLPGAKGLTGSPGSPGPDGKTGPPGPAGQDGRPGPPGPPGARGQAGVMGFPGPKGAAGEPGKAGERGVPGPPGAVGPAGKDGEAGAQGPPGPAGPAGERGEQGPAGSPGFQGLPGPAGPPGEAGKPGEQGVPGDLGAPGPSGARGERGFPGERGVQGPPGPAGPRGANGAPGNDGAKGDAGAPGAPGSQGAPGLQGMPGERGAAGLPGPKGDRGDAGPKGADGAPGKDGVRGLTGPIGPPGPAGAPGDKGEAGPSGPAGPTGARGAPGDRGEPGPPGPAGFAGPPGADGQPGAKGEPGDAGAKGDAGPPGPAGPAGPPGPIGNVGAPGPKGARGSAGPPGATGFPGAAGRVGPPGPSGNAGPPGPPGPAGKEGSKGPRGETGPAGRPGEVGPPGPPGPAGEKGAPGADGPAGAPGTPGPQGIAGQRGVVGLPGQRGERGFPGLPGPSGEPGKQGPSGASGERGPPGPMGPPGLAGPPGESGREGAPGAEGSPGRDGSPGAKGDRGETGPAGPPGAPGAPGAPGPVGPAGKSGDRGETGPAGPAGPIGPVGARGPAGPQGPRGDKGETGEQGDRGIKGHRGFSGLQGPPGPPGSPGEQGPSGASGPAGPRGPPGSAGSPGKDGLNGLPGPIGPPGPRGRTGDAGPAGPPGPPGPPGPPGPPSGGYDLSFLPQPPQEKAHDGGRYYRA
T1 sequence (P02465 80-1117 limits assumed): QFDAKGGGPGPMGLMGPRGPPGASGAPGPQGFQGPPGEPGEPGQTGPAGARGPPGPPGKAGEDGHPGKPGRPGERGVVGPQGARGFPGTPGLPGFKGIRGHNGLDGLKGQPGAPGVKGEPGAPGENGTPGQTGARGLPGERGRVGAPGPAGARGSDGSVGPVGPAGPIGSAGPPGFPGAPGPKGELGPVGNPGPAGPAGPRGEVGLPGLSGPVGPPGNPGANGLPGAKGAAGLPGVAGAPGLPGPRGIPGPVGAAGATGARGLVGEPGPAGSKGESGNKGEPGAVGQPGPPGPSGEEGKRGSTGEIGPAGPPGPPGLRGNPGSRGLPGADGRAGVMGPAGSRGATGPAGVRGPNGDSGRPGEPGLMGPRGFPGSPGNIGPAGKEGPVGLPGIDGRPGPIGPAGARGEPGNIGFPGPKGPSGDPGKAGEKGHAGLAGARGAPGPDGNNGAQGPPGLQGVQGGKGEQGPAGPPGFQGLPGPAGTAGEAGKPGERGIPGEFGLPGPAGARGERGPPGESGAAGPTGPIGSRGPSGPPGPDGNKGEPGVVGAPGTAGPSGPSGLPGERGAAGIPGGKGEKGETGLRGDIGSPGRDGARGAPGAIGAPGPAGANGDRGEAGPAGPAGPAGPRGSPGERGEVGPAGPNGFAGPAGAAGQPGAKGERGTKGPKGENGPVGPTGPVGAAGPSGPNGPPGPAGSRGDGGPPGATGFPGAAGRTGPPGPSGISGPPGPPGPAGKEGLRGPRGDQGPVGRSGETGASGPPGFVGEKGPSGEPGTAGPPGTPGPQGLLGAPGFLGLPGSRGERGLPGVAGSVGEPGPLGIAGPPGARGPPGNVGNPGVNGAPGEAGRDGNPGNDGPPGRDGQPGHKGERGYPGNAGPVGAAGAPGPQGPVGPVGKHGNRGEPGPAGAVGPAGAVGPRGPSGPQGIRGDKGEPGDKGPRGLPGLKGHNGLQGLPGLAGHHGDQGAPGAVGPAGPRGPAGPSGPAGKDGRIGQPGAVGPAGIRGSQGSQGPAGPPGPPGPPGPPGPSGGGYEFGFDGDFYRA
T2 sequence (P02453 162-1217 limits assumed): as the sequence (P02453 162-1217 limits assumed) above
T2 sequence (P02465 80-1117 limits assumed): as the sequence (P02465 80-1117 limits assumed) above
T4 sequence (P02453 162-1217 limits assumed): as the sequence (P02453 162-1217 limits assumed) above
T4 sequence (P02465 80-1117 limits assumed): as the sequence (P02465 80-1117 limits assumed) above
T3 sequence (P02453 162-1217 limits assumed): as the sequence (P02453 162-1217 limits assumed) above
T3 sequence (P02465 80-1117 limits assumed): as the sequence (P02465 80-1117 limits assumed) above

mPEG2000-Gly3-(ProHypGly)7- [Compound 5]
cell growth extending into the treated area observed after ([1]; in culture at 37° C.): 3 days | invasion of treated films by fibroblasts or epithelial cells [1]: dramatically reduced invasion | epithelial cells on treated area of collagen film ([1]; three days at 37° C.): almost devoid | melting temperature lower than that of (ProHypGly)7 ([2]; difference): 7 °C | Tm (transition temperature determined by circular dichroism spectroscopy) [2]: 29 °C | fibroblasts on treated area of collagen film [3]: almost devoid

(ProHypGly)7-Tyr
CD melting temperature (midpoint of CD melting curve) ([2]; peptide in distilled water): 38.5 °C

5CF-Gly3-(ProHypGly)10- [Compound 2]
Tm (CD melting transition temperature) ([2]; Cys-CMP derivatives, deionized water, ellipticity at 225 nm): 21 °C | Tm (transition temperature determined by circular dichroism spectroscopy) [2]: 75 °C | Tm (transition temperature determined by circular dichroism spectroscopy) ([2]; listed as peptide 2): 75 °C | fluorescence of treated collagen film ([4]; solution pre-equilibrated at 25° C.): negligible fluorescence | fluorescence of treated collagen film [4, 10]: strong fluorescence | helical content of treated collagen film relative to film treated with blank solution [5]: 3.5 times | original helical content of collagen film retained after treatment [5, 10]: 80%

CH3O—(CH2—CH2—O)n—OH [mPEG2000, reference compound]
fibroblasts on treated area of collagen film [3]: Homogenous distribution of fibroblasts

-(ProHypGly)10- [Compound 1]
Tm (transition temperature determined by circular dichroism spectroscopy) [2]: 69 °C

5CF-Gly3-(ProHypGly)6- [Compound 4]
Tm (transition temperature determined by circular dichroism spectroscopy) [2]: 25 °C | Tm (transition temperature determined by circular dichroism spectroscopy) ([2]; listed as peptide 4): 25 °C | banding pattern of collagen fibers after treatment [6]: native banding pattern | increase in CMP content of collagen film from that of the 30° C. solution ([4]; hotter solutions (60° C. and 80° C.)): approximately 20% | binding to collagen film ([4]; solution at 10° C.): Little binding | increase in CMP attachment compared to the 10° C. solution ([4]; solution pre-equilibrated at 30° C.): more than three-fold increase

fluorescein isothiocyanate-dextran [FITC-Dextran, reference compound]
affinity toward collagen film (fluorescence intensity) [4]: negligible affinity

(Pro-Hyp-Gly)8-Gly3-PEG5000-OH
time for which the treated gel repelled extensive cell growth [1]: close to eleven days | cell invasion into treated areas of the collagen film ([1]; after eleven days in culture): Extensive invasion | cell invasion into treated areas of the collagen film ([1]; after five days in culture): little invasion | cell invasion into treated areas of the collagen film ([1]; after nine days in culture): moderate invasion | invasion of treated films by fibroblasts or epithelial cells [1]: dramatically reduced invasion | melting temperature [7]: 38 °C

FL-PEG2000-Gly3-(Pro-Hyp-Gly)7
release from collagen film relative to 5CF-Gly3-(Pro-Hyp-Gly)8-Gly3-PEG5000-OH [8]: faster

(Pro-Hyp-Gly)7
melting temperature of unmodified (Pro-Hyp-Gly)7 CMP [9]: 37 °C

O=C(O)c1ccc2c(c1)C(=O)OC21c2ccc(O)cc2Oc2cc(O)ccc21 [Compound 5CF, 5-carboxyfluorescein, reference compound]
affinity toward collagen film (fluorescence intensity) [4]: negligible affinity
